Source: patent US7371813B2, “Method for use of IGF-binding protein for selective sensitization of target cells in vivo” (Bioexpertise LLC, priority 2000, dated 2008)
Marks after values point to notes of the source that are not given here.

Key:
[1] = tested on: 16C mammary adenocarcinoma; experiment: 16C mammary adenocarcinoma SC tumor implants in C3H mice, tumor growth; assay type: in vivo; details: for Days Delay in tumor growth: endpoint of 1500 mg tumor weight, 16C tumors, C3H mice
Description: Female C3H mice (8-11 animals per group) received early SC implants of 16C mammary adenocarcinoma tumor fragments (near 100% “take”) and were treated with vehicle, [N109D]-IGFBP-3 (4 mg/kg/day SC ×21), 5-FU (10 mg/kg/day IP ×5), adriamycin (2 mg/kg/dose IV on day 1 and day 8 post-implant), or the indicated combinations. Tumors were measured twice weekly. Animals were sacrificed at Day 21. The doses of doxorubicin and 5-fluorouracil used in this experiment were chosen to be marginally effective, based on previous experience with these chemical agents in this model. […] The results are shown graphically in FIG. 2.

[2] = tested on: 1,176 mouse gene sequences; experiment: Gene array analysis (Atlas 1.2k-I mouse gene arrays) of 16C tumor tissue; assay type: in vivo
Description: (§1) In order to gain further insights into the mechanism of action of exogenously added IGFBP-3 in these mouse models, tumor tissues from the groups treated with vehicle, doxorubicin, or doxorubicin plus IGFBP-3, were further analyzed using gene array technology. RNA was extracted from tumor tissue. cDNA was prepared, labelled and used to probe Atlas 1.2k-I mouse gene arrays (Clontech Laboratories Inc., Palo Alto, Calif.). These arrays contain 1,176 mouse gene sequences.

RXR-alpha = RXR-alpha levels in 16C tumor tissue (gene array); assay type: in vivo, mouse; details: 16C tumors from treated animals
Description: as §1

MDA-MB-231 tumors = experiment: MDA-MB-231 mammary tumors implanted SC in nude mice, tumor growth; assay type: in vivo; details: for Median tumor volume, day 15: Day 15 post-implant (treatment start); for Median tumor volume, day 15 / Days Delay in tumor growth: MDA-MB-231, nude mice; for Median tumor volume, day 19: Day 19 post-implant; for Median tumor volume, day 22: Day 22 post-implant; for Median tumor volume, day 26: Day 26 post-implant; for Median tumor volume, day 29: Day 29 post-implant; for Median tumor volume, day 33: Day 33 post-implant; for Tumor growth, difference from control: statistical comparison with the control group; for Days Delay in tumor growth: endpoint of 3× doubling of tumor weight
Description: MDA-MB-231 tumors were implanted in nude mice. Ten animals (NCr-nu) were allocated to each group. The tumors were implanted SC as trocar fragments and allowed to increase in size to approximately 170 mg before treatment began on Day 15 post-implant. The treatment regimen for [N109D]-IGFBP-3 was 4.0 mg/kg/dose, daily for 21 days, SC beginning on Day 15. The treatment regimen for Taxol was 5.0 mg/kg/day, daily for five days, IV. The treatment regimen for Cisplatin was 4.0 mg/kg/dose, administered every fourth day for three treatments, IP. Treatment regimens for TAXOL® and Cisplatin began on Day 18. Tumor measurements were performed daily.

tumor growth = experiment: Systemic IGFBP-3 alone in animal models of cancer, tumor growth; assay type: in vivo; details: 4 mg/kg for 21 days, more than one animal model of cancer
Description: This was surprising because it was believed that IGFBP-3 alone could cause the death of some tumor cells. The dose chosen is likely to be close to the maximum practicable dose that would be systemically delivered in a human clinical setting. The maximum practicable dose is determined by the cost, pharmacokinetics, toxicology, solubility of the formulation, route of administration, and other practical considerations.

| Compound | Days Delay in tumor growth [1] | Median tumor volume, day 15 (MDA-MB-231 tumors) [milligrams] | Median tumor volume, day 19 (MDA-MB-231 tumors) [milligrams] | Median tumor volume, day 22 (MDA-MB-231 tumors) [milligrams] | Median tumor volume, day 26 (MDA-MB-231 tumors) [milligrams] | Median tumor volume, day 29 (MDA-MB-231 tumors) [milligrams] | Median tumor volume, day 33 (MDA-MB-231 tumors) [milligrams] | Tumor growth, difference from control (MDA-MB-231 tumors) | Days Delay in tumor growth (MDA-MB-231 tumors) | other results |
| --- | --- | --- | --- | --- | --- | --- | --- | --- | --- | --- |
| O=c1[nH]cc(F)c(=O)[nH]1 [5-FLUOROURACIL, 5-fluorouracil] | +1.9 days |  |  |  |  |  |  |  |  |  |
| COc1cccc2c1C(=O)c1c(O)c3c(c(O)c1C2=O)C[C@@](O)(C(=O)CO)C[C@@H]3O[C@H]1C[C@H](N)[C@H](O)[C@H](C)O1 [ADRIAMYCIN ®, doxorubicin] | +2.5* days |  |  |  |  |  |  |  |  | Number of down-regulated genes ([2]; among the differentially expressed genes): 16 genes; Number of differentially expressed genes ([2]; of 1,176 gene sequences): 26 genes; Share of genes differentially expressed ([2]; of 1,176 gene sequences): 2%; Inhibition of RXR-alpha levels in tumors (RXR-alpha): not |
| IGFBP-3: insulin-like growth factor binding protein 3; in Table 2 the group received [N109D]-IGFBP-3 |  | 161 ± 35 | 367.5 ± 244 | 565 ± 510 | 818.5 ± 750 | 1089 ± 851 | 1936 ± 1825 |  |  | Slowing of tumor growth by IGFBP-3 alone (tumor growth): completely ineffective |
| N.N.[Cl][Pt][Cl] [CISPLATIN, cisplatin] |  | 171 ± 33 | 368 ± 124 | 446 ± 175 | 563 ± 214 | 675 ± 220 | 922 ± 299 | significantly different from control |  |  |
| CC(=O)O[C@H]1C(=O)[C@@]2(C)[C@H]([C@H](OC(=O)c3ccccc3)[C@]3(O)C[C@H](OC(=O)[C@H](O)[C@@H](NC(=O)c4ccccc4)c4ccccc4)C(C)=C1C3(C)C)[C@]1(OC(C)=O)CO[C@@H]1C[C@@H]2O [TAXOL ®, paclitaxel] |  | 153 ± 32 | 327 ± 131 | 384 ± 337 | 512 ± 489 | 648 ± 538 | 900 ± 1067 | significantly different from control | +3.5 days |  |
| [N109D]-IGFBP-3: derivative of IGFBP-3 that has an amino acid sequence alteration at position 109 of the mature sequence | -0.2 days |  |  |  |  |  |  | not significantly different from control | -2.2 days | Effect on tumor growth on its own ([1]; 4 mg/kg/day SC ×21): no measurable effects; Potentiation of the effects of co-administered doxorubicin and 5-fluorouracil ([1]; 4 mg/kg/day SC ×21 with marginally effective doses of the agents): significantly (p<0.01) potentiated the effects of both agents |
